Data taken from patent publication US20220142959A1, “LEUCINE, ACETYL LEUCINE, AND RELATED ANALOGS FOR TREATING DISEASE” (priority 2019, published 2022).

Test system: M1-type and M2-type inflammatory markers (mRNA)
Assay: Real time rt-PCR of inflammatory markers in TBI mouse cortex
Type: in vivo, mice
Conditions: for expression of inflammatory markers / pro-inflammatory mediators (overall): CCI induced TBI in mice
Protocol: Controlled cortical impact (CCI) induced TBI was performed in male C57BL6/J mice (20-25 g). Briefly, after a 10-mm midline incision was made over the skull, the skin and fascia were retracted, and a 4-mm craniotomy was made on the central aspect of the left parietal bone of mice under surgical anesthesia (2-3% isoflurane evaporated in a gas mixture containing 70% N20 and 30% 02). Moderate injury was induced in the exposed brain by a custom microprocessor-controlled and compressed air driven pneumatic impactor of 3.5 mm diameter tip with the impact velocity of 6 m/s and a deformation depth of 2 mm.
N-Acetyl-L-Leucine (“NAL” or “NALL”) was dissolved in ethanol to prepare a 50 mg/ml solution which was then diluted in water to give a 10 mg/ml solution. About 0.25 ml of the NAL solution (10 mg/ml) was orally administered in mice at a […] (2.5 mg NAL/25 g mouse) via oral gavage each day after CCI induced TBI for 4 days. Mice were also fed with NAL at 0.5 mg/kg chow powder chow mixed with diet gel for up to 7 days after injury.
The expression level of M1-type pro-inflammatory markers Nos2, Nlrp3, IL-1β, TNF, IFNβ and Nox2 in the perilesional area in TBI mouse cortices were determined by real time rt-PCR. The expression level of M2-type markers Socs3, YM-1, IL4ra and Arg-1 in cortical tissue was also determined.
Total RNA isolated from the ipsilateral cortex using miRNeasy Mini Kit (Qiagen, Cat No. 217004) was converted into cDNA using High Capacity RNA to cDNA kit (Applied Biosystem, Cat. No. 4387406) as per manufacturer's instruction. cDNA TaqMan® Universal Master Mix II (Applied Biosystems, Cat. No. 4440040) was used to perform quantitative real-time PCR amplification as described previously using 20× TaqMan® Gene Expression Assay (Applied Biosystems) for following mouse genes were used: Gapdh (Mm99999915_g1), NLRP3 (Mm00840904_m1), NOX2 (Mm01287743_m1), iNOS (Mm00440502_m1), TNFα (Mm00443258_m1), IFnβ1 (Mm00439552_s1), IL-10 (Mm01288386_m1), IL1b (Mm00434228_m1), Arg1 (Mm00475988_m1), SOCS3 (Mm00545913_s1), YM-1 (Mm00657889_mH) and IL-4ra (Mm01275139_m1) (Applied Biosystems). Reactions were amplified and quantified using a 7900HT Fast Real-Time PCR System and corresponding software (Applied Biosystems). Relative gene expression normalized to Gapdh was calculated based on the comparative Ct method.

[1] = NAL fed mouse cortices as compared to sham mice
[2] = cortices of NAL fed vs vehicle fed TBI mice

**Q.** For `CC(=O)N[C@@H](CC(C)C)C(=O)O` [ALL, acetyl-L-leucine], which “expression of inflammatory markers / pro-inflammatory mediators (overall)” value is on record?
**A.** The value was “modulates the expression of pro-inflammatory mediators”.

**Q.** And the “expression of inflammatory markers / pro-inflammatory mediators (overall)” value (listed as NAL)?
**A.** Its value is “reduces expression of several inflammatory markers”.

**Q.** What about the “levels of IL-4ra” value [1] of the same compound?
**A.** The value was “remained unaltered”.

**Q.** And the “levels of Socs3” value [1]?
**A.** The value was “remained unaltered”.

**Q.** What about the “levels of YM-1” value [1] of the same compound?
**A.** Its value is “remained unaltered”.

**Q.** And the “mRNA level of IFNβ” value [2]?
**A.** Its value is “decrease”.

**Q.** And the “mRNA level of Nox2” value [2]?
**A.** Its value is “decrease”.

**Q.** And the “levels of Arg-1” value (injured mouse cortex, NAL vs vehicle fed TBI mice)?
**A.** The value was “lowered”.
